According to patent US20260015350A1, “AZAQUINAZOLINE PAN-KRAS INHIBITORS” (Mirati Therapeutics, Inc., priority 2022, published 2026):

Key:
KRas^G12S = biological target: T1, KRas^G12S (Homo sapiens, UniProt P01116, G12S); assay: KRas binding assay (TR-FRET tracer displacement), KRas G12S; conditions: for IC50: TR-FRET tracer displacement, KRas G12S; for inhibition at 0.01 µM: single point, 10 nM compound, TR-FRET
T1 construct: Biotinylated KRas (corresponding to amino acids 1-169, produced at Accelegan Inc.); biotin (biotinylated); purchased Accelegan Inc
T1 sequence (P01116 1-169 isoform P01116-2 G12S): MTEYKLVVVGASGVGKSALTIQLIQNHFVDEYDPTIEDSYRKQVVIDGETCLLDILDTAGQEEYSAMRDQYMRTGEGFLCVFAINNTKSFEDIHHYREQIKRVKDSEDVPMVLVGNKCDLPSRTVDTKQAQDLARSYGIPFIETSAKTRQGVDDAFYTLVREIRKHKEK

KRas^G12R = biological target: T2, KRas^G12R (Homo sapiens, UniProt P01116, G12R); assay: KRas binding assay (TR-FRET tracer displacement), KRas G12R
T2 construct: Biotinylated KRas (corresponding to amino acids 1-169, produced at Accelegan Inc.); biotin (biotinylated); purchased Accelegan Inc
T2 sequence (P01116 1-169 isoform P01116-2 G12R): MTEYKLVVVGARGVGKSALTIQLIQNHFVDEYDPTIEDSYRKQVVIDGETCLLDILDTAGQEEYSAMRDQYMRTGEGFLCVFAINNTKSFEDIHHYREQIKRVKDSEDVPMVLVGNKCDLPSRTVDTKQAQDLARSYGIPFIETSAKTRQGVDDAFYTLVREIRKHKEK

[1] = test system: KRas-mediated phosphorylation of ERK in HCT116 cells; assay: Inhibition of KRas-mediated phosphorylation of ERK (Cisbio HTRF pERK), HCT116 cells; type: cell-based; conditions: Homo sapiens; for inhibition at 0.1 µM: HCT-116, 3 h, single point, 100 nM compound, 3 hrs
Outline: (§1)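 Min control wells contained 0.2 uM Trametinib, while test compounds ran as 10 doses (3-fold, top 10 uM; 0.8% DMSO final) on cells for 3 hrs. After 40 mins lysis at 4° C, lysates were probed with HTRF antibodies for 2 hrs at room temperature.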

KRas^G12C = biological target: T3, KRas^G12C (Homo sapiens, UniProt P01116, G12C); assay: KRas binding assay (TR-FRET tracer displacement), KRas G12C; conditions: for IC50: TR-FRET tracer displacement, KRas G12C; for inhibition at 0.01 µM: single point, 10 nM compound, TR-FRET
T3 construct: Biotinylated KRas (corresponding to amino acids 1-169, produced at Accelegan Inc.); biotin (biotinylated); purchased Accelegan Inc
T3 sequence (P01116 1-169 isoform P01116-2 G12C): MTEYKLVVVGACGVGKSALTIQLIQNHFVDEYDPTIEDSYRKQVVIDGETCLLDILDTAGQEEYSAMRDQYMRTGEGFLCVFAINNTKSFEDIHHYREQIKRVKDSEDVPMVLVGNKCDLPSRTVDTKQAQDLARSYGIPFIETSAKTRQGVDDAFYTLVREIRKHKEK

[2] = test system: KRas-mediated phosphorylation of ERK in H358 cells; assay: Inhibition of KRas-mediated phosphorylation of ERK (Cisbio HTRF pERK), H358 cells; type: cell-based; conditions: Homo sapiens; for inhibition at 0.1 µM: NCI-H358, 3 h, single point, 100 nM compound, 3 hrs
Outline: (§2)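 H358, H727, H460 and AsPC-1 cells seeded at 6,000/well, treated 3 hrs with 10-dose 3-fold dilutions from 10 uM (0.8% DMSO); 0.2 uM trametinib as min control. Lysed 40 min at 4° C; lysate incubated 2 hrs at room temperature with d2/cryptate antibodies, HTRF read.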

[3] = test system: KRas-mediated phosphorylation of ERK in H727 cells; assay: Inhibition of KRas-mediated phosphorylation of ERK (Cisbio HTRF pERK), H727 cells; type: cell-based; conditions: Homo sapiens; for inhibition at 0.1 µM: NCI-H727, 3 h, single point, 100 nM compound, 3 hrs, H727 cells; for IC50: NCI-H727, H727 cells, HTRF pERK
Outline: as §2

KRas^G12V = biological target: T4, KRas^G12V (Homo sapiens, UniProt P01116, G12V); assay: KRas binding assay (TR-FRET tracer displacement), KRas G12V
T4 construct: Biotinylated KRas (corresponding to amino acids 1-169, produced at Accelegan Inc.); biotin (biotinylated); purchased Accelegan Inc
T4 sequence (P01116 1-169 isoform P01116-2 G12V): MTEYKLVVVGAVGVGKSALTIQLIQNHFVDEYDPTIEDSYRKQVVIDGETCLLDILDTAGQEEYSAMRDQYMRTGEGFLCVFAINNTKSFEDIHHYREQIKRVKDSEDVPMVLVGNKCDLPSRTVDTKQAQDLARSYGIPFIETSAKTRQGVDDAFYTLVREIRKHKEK

KRas^G13D = biological target: T5, KRas^G13D (Homo sapiens, UniProt P01116, G13D); assay: KRas binding assay (TR-FRET tracer displacement), KRas G13D; conditions: for IC50: TR-FRET tracer displacement, KRas G13D; for inhibition at 0.01 µM: single point, 10 nM compound, TR-FRET
T5 construct: Biotinylated KRas (corresponding to amino acids 1-169, produced at Accelegan Inc.); biotin (biotinylated); purchased Accelegan Inc
T5 sequence (P01116 1-169 isoform P01116-2 G13D): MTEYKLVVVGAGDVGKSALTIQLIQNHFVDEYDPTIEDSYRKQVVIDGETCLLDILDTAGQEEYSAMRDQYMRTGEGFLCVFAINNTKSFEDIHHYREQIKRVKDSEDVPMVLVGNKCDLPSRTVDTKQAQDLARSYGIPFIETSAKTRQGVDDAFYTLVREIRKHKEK

KRas^WT = biological target: T6, KRas^WT (Homo sapiens, UniProt P01116); assay: KRas binding assay (TR-FRET tracer displacement), KRas WT; conditions: for IC50: TR-FRET tracer displacement, KRas WT; for inhibition at 0.01 µM: single point, 10 nM compound, TR-FRET
T6 construct: Biotinylated KRas (corresponding to amino acids 1-169, produced at Accelegan Inc.); biotin (biotinylated); purchased Accelegan Inc
T6 sequence (P01116 1-169 isoform P01116-2): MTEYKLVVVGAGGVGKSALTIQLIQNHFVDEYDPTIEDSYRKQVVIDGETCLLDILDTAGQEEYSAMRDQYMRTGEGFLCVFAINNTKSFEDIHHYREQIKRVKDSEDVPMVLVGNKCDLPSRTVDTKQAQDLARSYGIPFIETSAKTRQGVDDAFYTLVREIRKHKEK

KRas^G12A = biological target: T7, KRas^G12A (Homo sapiens, UniProt P01116, G12A); assay: KRas binding assay (TR-FRET tracer displacement), KRas G12A; conditions: for IC50: TR-FRET tracer displacement, KRas G12A; for inhibition at 0.01 µM: single point, 10 nM compound, TR-FRET
T7 construct: Biotinylated KRas (corresponding to amino acids 1-169, produced at Accelegan Inc.); biotin (biotinylated); purchased Accelegan Inc
T7 sequence (P01116 1-169 isoform P01116-2 G12A): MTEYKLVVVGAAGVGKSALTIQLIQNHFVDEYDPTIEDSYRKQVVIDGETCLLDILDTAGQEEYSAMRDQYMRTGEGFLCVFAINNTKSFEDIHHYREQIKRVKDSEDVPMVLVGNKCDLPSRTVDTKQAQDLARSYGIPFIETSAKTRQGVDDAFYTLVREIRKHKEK

KRas^Q61H = biological target: T8, KRas^Q61H (Homo sapiens, UniProt P01116, Q61H); assay: KRas binding assay (TR-FRET tracer displacement), KRas Q61H; conditions: for IC50: TR-FRET tracer displacement, KRas Q61H; for inhibition at 0.01 µM: single point, 10 nM compound, TR-FRET
T8 construct: Biotinylated KRas (corresponding to amino acids 1-169, produced at Accelegan Inc.); biotin (biotinylated); purchased Accelegan Inc
T8 sequence (P01116 1-169 isoform P01116-2 Q61H): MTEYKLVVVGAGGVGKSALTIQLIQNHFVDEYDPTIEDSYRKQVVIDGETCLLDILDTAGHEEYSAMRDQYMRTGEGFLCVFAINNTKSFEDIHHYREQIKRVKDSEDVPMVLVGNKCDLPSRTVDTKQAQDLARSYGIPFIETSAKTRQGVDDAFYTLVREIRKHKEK

KRas^G12D = biological target: T9, KRas^G12D (Homo sapiens, UniProt P01116, G12D); assay: KRas binding assay (TR-FRET tracer displacement), KRas G12D
T9 construct: Biotinylated KRas (corresponding to amino acids 1-169, produced at Accelegan Inc.); biotin (biotinylated); purchased Accelegan Inc
T9 sequence (P01116 1-169 isoform P01116-2 G12D): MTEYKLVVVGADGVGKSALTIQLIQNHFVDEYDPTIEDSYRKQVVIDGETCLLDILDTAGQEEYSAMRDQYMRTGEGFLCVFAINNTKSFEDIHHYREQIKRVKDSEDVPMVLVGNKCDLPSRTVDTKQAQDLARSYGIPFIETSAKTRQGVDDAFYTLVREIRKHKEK

[4] = test system: KRas-mediated phosphorylation of ERK in H460 cells; assay: Inhibition of KRas-mediated phosphorylation of ERK (Cisbio HTRF pERK), H460 cells; type: cell-based; conditions: Homo sapiens; for inhibition at 0.1 µM: NCI-H460, 3 h, single point, 100 nM compound, 3 hrs
Outline: as §2

[5] = test system: KRas-mediated phosphorylation of ERK in A549 cells; assay: Inhibition of KRas-mediated phosphorylation of ERK (Cisbio HTRF pERK), A549 cells; type: cell-based; conditions: Homo sapiens; for inhibition at 0.1 µM: A549, 3 h, single point, 100 nM compound, 3 hrs
Outline: as §1

[6] = test system: KRas-mediated phosphorylation of ERK in AsPC-1 cells; assay: Inhibition of KRas-mediated phosphorylation of ERK (Cisbio HTRF pERK), AsPC-1 cells; type: cell-based; conditions: Homo sapiens; for inhibition at 0.1 µM: ASPC1, 3 h, single point, 100 nM compound, 3 hrs, AsPC-1 cells; for IC50: ASPC1, AsPC-1 cells, HTRF pERK
Outline: as §2

| SMILES | IC50 (KRas^G12S) [nM] | IC50 (KRas^G12R) [nM] | inhibition at 0.1 µM [1] [%] | IC50 (KRas^G12C) [nM] | inhibition at 0.1 µM [2] [%] | IC50 [3] [nM] | IC50 (KRas^G12V) [nM] | IC50 (KRas^G13D) [nM] | IC50 (KRas^WT) [nM] | IC50 (KRas^G12A) [nM] | IC50 (KRas^Q61H) [nM] | IC50 (KRas^G12D) [nM] | inhibition at 0.1 µM [4] [%] | inhibition at 0.1 µM [5] [%] | IC50 [6] [nM] | inhibition at 0.01 µM (KRas^G12S) [%] | inhibition at 0.01 µM (KRas^G12C) [%] | inhibition at 0.01 µM (KRas^G13D) [%] | inhibition at 0.01 µM (KRas^WT) [%] | inhibition at 0.01 µM (KRas^G12A) [%] | other results |
| --- | --- | --- | --- | --- | --- | --- | --- | --- | --- | --- | --- | --- | --- | --- | --- | --- | --- | --- | --- | --- | --- |
| Oc1cc(-c2ncc3c(N4C[C@@H]5C[C@H](C4)[C@H](O)C5)nc(OC[C@@]45CCCN4C[C@H](F)C5)nc3c2F)c2ccccc2c1F [Example 750, (1R,5R,6R)-3-(8-fluoro-7-(4-fluoro-3-hydroxynaphthalen-1-yl)-2-(((2R,7aS)-2-fluorotetrahydro-1H-pyrrolizin-7a(5H)-yl)methoxy)pyrido[4,3-d]pyrimidin-4-yl)-3-azabicyclo[3.2.1]octan-6-ol] | 43 | 42 | 2 | 74 | 15 | 1680 | 29 | 74 | 84 | 63 | 184 | 98 | 16 | -1 | 1900 |  |  |  |  |  | inhibition at 0.1 µM [3]: 1%; inhibition at 0.1 µM [6]: -1% |
| CN(C)C(=O)OC[C@@H]1CC[C@@]2(COc3nc(N4CCC[C@@](C)(O)C4)c4cnc(-c5cc(O)cc6ccc(F)c(F)c56)c(F)c4n3)CCCN12 [Example 548, ((3S,7aR)-7a-(((7-(7,8-difluoro-3-hydroxynaphthalen-1-yl)-8-fluoro-4-((R)-3-hydroxy-3-methylpiperidin-1-yl)pyrido[4,3-d]pyrimidin-2-yl)oxy)methyl)hexahydro-1H-pyrrolizin-3-yl)methyl dimethylcarbamate] |  | 5 | 29 |  | 59 | 88 | 3 |  |  |  |  | 2 | 38 | 38 | 55 | 79 | 84 | 86 | 79 | 79 | inhibition at 0.01 µM (KRas^Q61H): 79% |
| Oc1cc(-c2ncc3c(N4C[C@@H]5C[C@H](C4)[C@H](O)C5)nc(OC[C@@]45CCCN4C[C@H](F)C5)nc3c2F)c2ccc(F)cc2c1 [Example 749, (1R,5R,6R)-3-(8-fluoro-7-(6-fluoro-3-hydroxynaphthalen-1-yl)-2-(((2R,7aS)-2-fluorohexahydro-1H-pyrrolizin-7a-yl)methoxy)pyrido[4,3-d]pyrimidin-4-yl)-3-azabicyclo[3.2.1]octan-6-ol] | 19 | 16 | 20 | 29 | -5 | 246 | 19 | 37 | 34 | 25 | 44 | 54 | -3 | 15 | 1400 |  |  |  |  |  |  |
| C#Cc1c(F)ccc2cc(O)cc(-c3ncc4c(N5CCC[C@@](C)(O)C5)nc(OCC5(CN6CCCC6)CC5)nc4c3F)c12 [Example 752, (R)-1-(7-(8-ethynyl-7-fluoro-3-hydroxynaphthalen-1-yl)-8-fluoro-2-((1-(pyrrolidin-1-ylmethyl)cyclopropyl)methoxy)pyrido[4,3-d]pyrimidin-4-yl)-3-methylpiperidin-3-ol] |  | < 2 | 32 |  | 76 | 53 | < 2 |  |  |  |  | < 2 | 44 | 31 | 55 | 97 | 99 | 98 | 97 | 96 | inhibition at 0.1 µM [3]: 31%; inhibition at 0.01 µM (KRas^Q61H): 99%; inhibition at 0.1 µM [6]: 27% |
| Oc1cc(-c2ncc3c(N4C[C@@H]5C[C@H](C4)[C@H](O)C5)nc(OC[C@@]45CCCN4C[C@H](F)C5)nc3c2F)c2ccc(Cl)cc2c1 [Example 763, (1R,5R,6R)-3-(7-(6-chloro-3-hydroxynaphthalen-1-yl)-8-fluoro-2-(((2R,7aS)-2-fluorohexahydro-1H-pyrrolizin-7a-yl)methoxy)pyrido[4,3-d]pyrimidin-4-yl)-3-azabicyclo[3.2.1]octan-6-ol] | 20 | 18 | 5 | 33 | -25 | 498 | 23 | 36 | 36 | 25 | 45 | 70 | 13 | -11 | 1250 |  |  |  |  |  |  |
| Oc1cc(-c2ncc3c(N4C[C@@H]5C[C@H](C4)[C@H](O)C5)nc(OC[C@@]45CCCN4C[C@H](F)C5)nc3c2F)c2cccc(F)c2c1 [Example 748, (1R,5R,6R)-3-(8-fluoro-7-(5-fluoro-3-hydroxynaphthalen-1-yl)-2-(((2R,7aS)-2-fluorohexahydro-1H-pyrrolizin-7a-yl)methoxy)pyrido[4,3-d]pyrimidin-4-yl)-3-azabicyclo[3.2.1]octan-6-ol] | 12 | 11 | 21 | 18 | 5 | 275 | 12 | 21 | 20 | 16 | 26 | 32 | -6 | -7 | 788 |  |  |  |  |  |  |
| Cc1cccc2c(-c3ncc4c(N5C[C@@H]6C[C@H](C5)[C@H](O)C6)nc(OC[C@@]56CCCN5C[C@H](F)C6)nc4c3F)cc(O)cc12 [Example 747, (1R,5R,6R)-3-(8-fluoro-2-(((2R,7aS)-2-fluorohexahydro-1H-pyrrolizin-7a-yl)methoxy)-7-(3-hydroxy-5-methylnaphthalen-1-yl)pyrido[4,3-d]pyrimidin-4-yl)-3-azabicyclo[3.2.1]octan-6-ol] | 61 | 76 | 5 | 107 | -6 | 1260 | 67 | 94 | 107 | 36 | 180 | 272 | -6 | 4 | 3850 |  |  |  |  |  |  |
| CCc1c(F)ccc2cc(O)cc(-c3ncc4c(N5CCC[C@]6(CCO6)C5)nc(OCC5(CN(C)C)CC5)nc4c3F)c12 [Example 699, (S)-4-(2-((1-((dimethylamino)methyl)cyclopropyl)methoxy)-8-fluoro-4-(1-oxa-6-azaspiro[3.5]nonan-6-yl)pyrido[4,3-d]pyrimidin-7-yl)-5-ethyl-6-fluoronaphthalen-2-ol] |  |  | 82 |  | 101 | 6 |  |  |  |  |  |  | 95 | 80 | 2 | 93 | 96 | 96 | 91 | 87 | IC50 ([1]; HCT-116, HTRF pERK): 14 nM; IC50 ([2]; NCI-H358, HTRF pERK): 3 nM; inhibition at 0.01 µM (KRas^Q61H): 96%; IC50 ([4]; NCI-H460, HTRF pERK): 5 nM; IC50 ([5]; HTRF pERK): 2 nM |
